The values below come from patent publication US20230003716A1, “METHODS AND APPARATUSES FOR PATIENT-DERIVED MICROORGANOSPHERES” (Xilis, Inc., priority 2020, published 2023).

Assay [1] has as its system PDX240 cells (colorectal cancer patient derived xenograft). Briefly: drug response curves, traditional (bulk) organoids versus Micro-Organospheres, PDX240. The conditions noted are these: cell viabilities after 3 days of treatment. The assay is classed as cell-based, human. An excerpt: In some variations, the Micro-Organospheres may be formed from cell lines grown as part of a Patient Derived Xenograft (PDX). For example, FIGS. 28A-28D illustrate Micro-Organospheres formed from cultured PDX240 cells. PDX240 cells are a Patient Derived Xenograft (PDX) tumor cell line (numbered 240 based on patient source) that were human tumors grown in immunodeficient mice (PDX) to form in vivo tumors. The xenograft tissue was extracted dissociated, and used to form Micro-Organospheres as described above. In this example a single cell was included in each Micro-Organospheres as it was formed. […] With progressive time in culture, at least some of the Micro-Organospheres show the cells dividing and forming structures.
(§1) Organoids were formed from Patient Derived Xenograft cells (including the PDX240 cells described above and a second PDX cell line, PDX19187) and were compared with Micro-Organospheres formed using the same cells. The organoids were formed using conventional techniques in which a large mass of […] in a well or dish was seeded with cells and cultured until growth was confirmed. Micro-Organospheres were generated from the traditional organoids.
(§2) Both traditional (“bulk”) organoids and the Micro-Organospheres were then treated with the same drugs (e.g., Oxaliplatin or SN38) and cell viabilities were measured after 3 days of treatment.

The test system of assay [2] is Patient-Derived Micro-Organospheres (tumor biopsy). Put plainly: drug effect screen on Patient-Derived Micro-Organospheres from a patient tumor biopsy. It counts as cell-based, human. The conditions noted are these: for percent survival of the Micro-Organospheres in the presence of the drug: Example 3, FIGS. 23B-23C, predicts drug resistance. The source says: The Patient-Derived Micro-Organospheres described herein may be used in a variety of different assays, and in particular may be used to determine drug formulation effects, including toxicity, on normal and/or abnormal (e.g., cancerous) tissue. For example, drug screening may include applying Micro-Organospheres into all or some wells of multi-well (e.g., a 96-well) plate. Alternatively custom plates may be used (e.g., a 10,000 micro-well array may be formed of a 100×100 wells). The Micro-Organospheres (e.g., gel droplets) may be applied into, or in some variations onto the multiple microwell arrays and incubated with culture medium. The Micro-Organospheres may be cultured over the course of 3-5 days. In some variations, on day 5, the wells (e.g., micro-reactors) may then be dosed with drug compounds, e.g., based on a set of FDA-approved anticancer drugs, to examine the effects of the drug panel. For example, the drugs texted may be based on the National Cancer Institute (Division of Cancer Treatment and Diagnosis (11)) screen, consisting of 147 agents intended to enable cancer research, drug discovery and combination drug studies. On Day 7, the Micro-Organospheres may be imaged via standard fluorescent microscopy and ranked based on drug response.
In this example, the screening assay may be automated. This may enable repeatable and automated workflow, which may increase the number of drugs screened from a few to hundreds. FIGS. 17A-17E illustrate one example of this workflow. In FIG. 17A, a tumor biopsy is taken and a plurality (e.g., >10,000) Micro-Organospheres are formed as described above (in FIG. 17A the junction region forming the Micro-Organospheres is illustrated).
In a similar set of experiments, Micro-Organospheres were generated from biopsy material (FIG. 23A), and a drug effect screen was performed using the resulting Micro-Organospheres. […] Thus, the Micro-Organospheres correlated strongly with patient response to the standard of care drugs. […]

Assay [3] concerns patient tumor. Briefly: actual response of the patient's tumor to drug treatment. The assay is classed as in vivo, human. The conditions noted are these: for patient response to treatment: Example 3, treated with both Oxaliplatin and Irinotecan, after 6 months of treatment.
The test system of assay [4] is traditional cell line. Briefly: traditional (2D) tumor cell line drug assay. It counts as cell-based. Conditions: FIG. 22A; all dose ranges examined; predicts drug resistance. The source says: As mentioned above, the Patient-Derived Micro-Organospheres and methods of using them to screen for drug compositions may be used to accurately predict the response of a patient tumor to one or more drug therapies. […] For example, in FIG. 22A-22D, the Micro-Organospheres, but not a cell line, was able to correlate with patient response.

In assay [5] the test system is PDX19187 cells (colorectal cancer). The assay is classed as cell-based, human. Conditions: cell viabilities after 3 days of treatment. How it is done:
as §1, §2

Like-named read-outs stand apart in the source and are kept apart here.

With `O=c1[nH]cc(F)c(=O)[nH]1` [5-FU, Fluorouracil], in assay [1], the “drug response curve (cell viability), bulk organoids compared with Micro-Organospheres” value is listed as “comparable responses”.

As to `CCc1c2c(nc3ccc(OC(=O)N4CCC(N5CCCCC5)CC4)cc13)-c1cc3c(c(=O)n1C2)COC(=O)[C@]3(O)CC` [Irinotecan], the “percent survival of the Micro-Organospheres in the presence of the drug” value in assay [2] is listed as “lack of effect”. The “patient response to treatment” value in assay [3] is on record as “no response”.

`O=C1[O][Pt]2([NH][C@@H]3CCCC[C@H]3[NH]2)[O]C1=O` [Oxaliplatin]: in assay [4], the “drug effect on traditional cell line” value is given as “no effect”. In addition, in assay [2] (Example 2, FIG. 22B, predicts drug sensitivity), the “cell survival of tumor Micro-Organospheres” value is “significant decreases in cell survival”. Moreover, in assay [2], the “percent survival of the Micro-Organospheres in the presence of the drug” value is listed as “no change in the percent survival”. For the same molecule, the “tumor response of the patient to treatment” value in assay [3] (Example 2, FIGS. 22C (before) and 22D (post treatment)) is listed as “responded to treatment”. In addition, the “patient response to treatment” value in assay [3] is “no response”. Moreover, the “drug response curve (cell viability), bulk organoids compared with Micro-Organospheres” value in assay [5] (listed as Oxalipalatin) is given as “comparable response”.

In the case of `CCc1c2c(nc3ccc(O)cc13)-c1cc3c(c(=O)n1C2)COC(=O)[C@]3(O)CC` [SN38, 7-Ethyl-10-hydroxy-camptothecin], the “drug response curve (cell viability), bulk organoids compared with Micro-Organospheres” value in assay [1] and in assay [5] was “comparable responses” in each case.
